# In patent publication US20090227617A1, “Esters Of Glucuronide Prodrugs Of Anthracyclines And Method Of Preparation And Use In Tumor-Selective Chemotherapy” (Pharmachemie B.V., priority 2008, published 2009):
# Read-outs that look alike come from different tables or passages of the source.
# Experiments:
# [1] = tested on: OVCAR-3 cells; test: In vitro antiproliferative effects in OVCAR-3 cells (crystal violet assay), with or without bovine beta-glucuronidase (GUS); type: cell-based, human; settings: for IC50: 3 days incubation; for toxicity compared with doxorubicin: in the presence of GUS
# Protocol: The toxicity of the prodrugs was tested with OVCAR-3 cells. The cells were incubated for 3 days with the different prodrugs DOX-alGA3, DOX-mPEG4-GA3, DOX-mPEG7-GA3, and for comparison also with Doxorubicin, in fetal bovine serum (FBS), in the presence or absence of bovine beta-glucuronidase (GUS).
# The concentrations used for the prodrugs ranged from 0.001 μM to 50 μM.
# In vitro antiproliferative effects in OVCAR-3 cells after 3 days of incubation with the different (pro)-drugs DOX, DOX-alGA3, DOX-mPEG4-GA3 and DOX-mPEG7-GA3 in the presence or absence of bovine beta-glucuronidase(GUS).
# The concentrations used for the prodrugs ranged from 0.001 μM to 50 μM, the GUS enzyme was added to give a final concentration of 10 units/μl. Adjacent to this, cells treated with the prodrugs were incubated without GUS. Incubation was conducted at 37° C. in a humidified, 5% CO2 incubator of three days. Cell growth is measured by crystal violet assay, untreated cells are set at 100%. The IC50 values found in these experiments are depicted in the table beneath.
# The human ovarian cancer (OVCAR3) cell line was maintained in DMEM supplemented with 10% heat inactivated FBS and 1% P/S. Inhibition of proliferation of the OVCAR cell line by the doxorubicin prodrugs Dox-allyl, Dox-mGA3, Dox-mPEG4 and Dox-mPEG7 was determined using a crystal violet assay. The assay was preformed in a 96-wells plate. Cells that were harvested by trypsinisation were seeded with 5.000 cells in 100 μl medium per well. The 96-wells plate was incubated overnight at 37° C. in a humidified, 5% CO2 incubator. The different prodrugs were added in concentrations between 0.001 μM to 50 μM. Subsequently, the GUS enzyme was added to give a final concentration of 10 units/μl. This mixture was incubated at 37° C. in a humidified, 5% CO2 incubator for tree days. Subsequently, the cells were stained and fixed with 50 μl 1% crystal violet in 70% ethanol. The cells were washed with water and resolubilized in 100 μl 1% SDS. After this the absorbance was read at 550 nm. The blank extinction values were determined on wells in which no cells were seeded were subtracted from the signals. Inhibition concentrations 50% (IC50) were derived by plotting the inhibition of cell proliferation at different concentrations of the prodrug and non-linear curve fitting.
# [2] = Solubility in water; type: physicochemical
# Protocol: For DOX-triazol ester 1 (DOX-mPEG4GA3) about 0.6 mg prodrug dissolve in 1 ml of water whereas for DOX-mPEG7GA3 already 2.5 mg dissolve in 1 ml of water and for DOX-mPEG12GA3 this has reached more than 15 mg in 1 ml of water.
# [3] = tested on: tumor bearing mice; settings: based on 10% weight loss, i.v.; cited from earlier work
# [4] = Hydrolysis of prodrug esters in phosphate buffer pH 7.33, followed by reverse phase TLC; type: physicochemical; settings: phosphate buffer pH=7.33, room temperature
# Source text: hydrolyze faster than alkyl esters like DOX-mGA3 due to the better leaving ability of the ester group of 1. This is caused by the electron-withdrawing properties of the triazol functionality. Indeed in a phosphate buffer with pH=7.33 it took 24 hrs at room temperature before DOX-mGA3 was completely hydrolyzed. The DOX derivatives of 1 with n=7 or 12 and x=1 (DOX-mPEG7GA3 and DOX-mPEG12GA3) were, nevertheless, already hydrolyzed within 4 hrs under these circumstances.
# The hydrolysis of the DOX esters were qualitatively followed with reverse phase TLC (RP18). With eluens acetonitril/water: 42/58 in a phosphate buffer (KH2PO4/Na2HPO4) of pH=7.33.
# DOX-mGA3 0.29 mg was dissolved in 1 ml of buffer together with some drops of DMSO to keep the DOX-mGA3 dissolved. It took 24 hrs before the starting compound had disappeared.
# In the same way the hydrolysis of DOX-triazol esters 1 (n=, 7 and 12, x=1) were followed for 0.35 mg/ml and 0.45 mg/ml buffer. Both esters were completely hydrolyzed within 4 hrs.
# [5] = has to be administered in a vehicle containing Cremophore EL; cited from earlier work
# [6] = tested on: carboxyl esterases; settings: mouse plasma; cited from earlier work
# [7] = tested on: carboxyl esterases; settings: human plasma; cited from earlier work
# [8] = cited from earlier work
# [9] = tumor bearing mice, half of the MTD; cited from earlier work
# [10] = bovine beta-glucuronidase 10 units/μL, read-out: IC50 (M) with GUS (10 units/μL)
# [11] = no GUS, read-out: IC50 (M) No GUS
"IC50 [1, 10] [M]","IC50 [1, 11] [M]",solubility in water [2],SMILES,toxicity compared with doxorubicin [1],further results
6.21e-08,2.21e-05,about 0.6 mg in 1 ml of water,COCCOCCOCCOCCn1cc(COC(=O)C2OC(OC(=O)Nc3ccc(COC(=O)NC4CC(OC5CC(O)(C(=O)CO)Cc6c(O)c7c(c(O)c65)C(=O)c5c(OC)cccc5C7=O)OC(C)C4O)cc3)C(O)C(O)C2O)nn1 (centres unmarked) [DOX-mPEG4-GA3],comparable toxicity as doxorubicin,
,,more than 15 mg in 1 ml of water,COCCOCCOCCOCCOCCOCCOCCOCCOCCOCCOCCOCCn1cc(COC(=O)C2OC(OC(=O)Nc3ccc(COC(=O)NC4CC(OC5CC(O)(C(=O)CO)Cc6c(O)c7c(c(O)c65)C(=O)c5c(OC)cccc5C7=O)OC(C)C4O)cc3)C(O)C(O)C2O)nn1 (centres unmarked) [DOX-mPEG12GA3],,
7.74e-08,8.33e-06,2.5 mg in 1 ml of water,COCCOCCOCCOCCOCCOCCOCCn1cc(COC(=O)C2OC(OC(=O)Nc3ccc(COC(=O)NC4CC(OC5CC(O)(C(=O)CO)Cc6c(O)c7c(c(O)c65)C(=O)c5c(OC)cccc5C7=O)OC(C)C4O)cc3)C(O)C(O)C2O)nn1 (centres unmarked) [DOX-mPEG7-GA3],slightly less toxic,
5.84e-08,9.81e-06,,C=CCOC(=O)C1OC(OC(=O)Nc2ccc(COC(=O)NC3CC(OC4CC(O)(C(=O)CO)Cc5c(O)c6c(c(O)c54)C(=O)c4c(OC)cccc4C6=O)OC(C)C3O)cc2)C(O)C(O)C1O (centres unmarked) [DOX-alGA3],comparable toxicity as doxorubicin,
,,,COC(=O)C1OC(OC(=O)Nc2ccc(COC(=O)NC3CC(OC4CC(O)(C(=O)CO)Cc5c(O)c6c(c(O)c54)C(=O)c4c(OC)cccc4C6=O)OC(C)C3O)cc2)C(O)C(O)C1O (centres unmarked) [DOX-mGA3],,"time until completely hydrolyzed [4]: 24 h; solubility in water (in words) [2]: completely insoluble in water; solubility in water (in words, background) [5]: very bad solubility in water; half time of conversion to DOX-GA3 [6]: approximately 05 min; half time of conversion to DOX-GA3 [7]: ~2.5 h; pharmacokinetics in mice (in words) [8]: improved pharmacokinetics"
,,,COc1cccc2c1C(=O)c1c(O)c3c(c(O)c1C2=O)CC(O)(C(=O)CO)CC3OC1CC(NC(=O)OCc2ccc(NC(=O)OC3OC(C(=O)O)C(O)C(O)C3O)cc2)C(O)C(C)O1 (centres unmarked) [DOX-GA3],,maximum tolerated dose (MTD) [3]: approximately 500 mg/kg; concentrations of doxorubicin in plasma versus administration of doxorubicin [9]: significantly lower concentrations of doxorubine in plasma; concentrations of doxorubicin in tumor tissue versus administration of doxorubicin [9]: higher

SMILES,"IC50 [1, 10] [M]","IC50 [1, 11] [M]",solubility in water [2],toxicity compared with doxorubicin [1],further results
"COc1cccc2c1C(=O)c1c(O)c3c(c(O)c1C2=O)C[C@@](O)(C(=O)CO)C[C@@H]3O[C@H]1C[C@H](N)[C@H](O)[C@H](C)O1 [DOX, doxorubicin, reference compound]",,6.19e-08,,,maximum tolerated dose (MTD) [3]: 8 mg/kg
